This note sets out measurements from ChEMBL document CHEMBL1201862, “PubChem BioAssay data set” (2004).

Experiment in all cases: DTP human tumour cell line panel, 48 h
Experiment [1] concerns OVCAR-3.
Experiment [2] concerns HCT-116.
Experiment [3] concerns M14.
The subject of experiment [4] is SNB-75.
In experiment [5] the test system is SF-268.
Experiment [6] relates to CAKI-1.
The subject of experiment [7] is Hs-578T.
The test system of experiment [8] is UACC-62.
For experiment [9], the system named is HOP-92.
For experiment [10], the system named is SF-539.
For experiment [11], the system named is NCI-H522.
Experiment [12] deals with IGROV-1.
Experiment [13] relates to A549.
Experiment [14] concerns PC-3.
The subject of experiment [15] is UO-31.
Experiment [16] deals with SK-OV-3.
Experiment [17] has as its system RXF 393.
For experiment [18], the system named is U-251.
The test system of experiment [19] is HT-29.
The subject of experiment [20] is HL-60.

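Compound exposure: 48 hours, 5 concentrations, 96-well plates. GI50 = concentration required for 50% inhibition of growth.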 Calls of active or inactive are those of the source. Rule as the data show it: active = GI50 up to about 1.1 µM and inactive = higher.

By GI50 is commonly meant the concentration that inhibits growth by half. Regarding `N=c1c2sc3nc4ccccc4n3c2ncn1Cc1ccccc1`, the GI50 in experiment [1], in [2], in experiment [3], in [4], in experiment [5] and in [6] was > 100 µM (inactive) each time. In addition, the GI50 in experiment [7], in experiment [8], in [9], in experiment [10], in experiment [11] and in experiment [12] was > 100 µM (inactive) each time. Further, the GI50 in [13] is > 100 µM (inactive); in experiment [14], > 100 µM (inactive); in experiment [15], > 100 µM (inactive); in [16], > 100 µM (inactive); in experiment [17] it was 63.5 µM (inactive); in experiment [18] it was > 100 µM (inactive).

Take `CN(C)S(=O)(=O)c1ccc2c(c1)/C(=C1/Nc3ccccc3C1=O)C(=O)N2`: the GI50 is 93.1 µM (inactive) in experiment [1]; > 100 µM (inactive) in [19]; 23.1 µM (inactive) in [2]; > 100 µM (inactive) in experiment [3]; 0.0617 µM (active) in [4]; 14.7 µM (inactive) in experiment [5]. In addition, the GI50 in [6] is > 100 µM (inactive); in experiment [7], 14.4 µM (inactive); in [8], 14.7 µM (inactive); in experiment [9] it was 16.8 µM (inactive); in experiment [11], 25.5 µM (inactive); in [12] it was 11.9 µM (inactive). The GI50 in experiment [13] is > 100 µM (inactive); in experiment [14], 23 µM (inactive); in experiment [15], 44.3 µM (inactive); in [16], 13.9 µM (inactive); in [17], 1.71 µM (inactive); in experiment [18], 10.6 µM (inactive).

In the case of `COC(=O)C1CCC(=S)N1C(=O)c1ccccc1` (stereo not given), the GI50 in [1], in experiment [19], in experiment [2], in experiment [3], in experiment [4] and in experiment [5] was > 100 µM (inactive) throughout. Moreover, the GI50 in [6], in [7], in [8], in experiment [9], in experiment [11] and in [12] was > 100 µM (inactive) throughout. The GI50 in [13], in experiment [14], in experiment [15], in experiment [16], in [17] and in experiment [18] was > 100 µM (inactive) each time.

With `COc1ccc(C(=O)C(Br)C(Br)C(=O)O)cc1` (stereo not given), the GI50 in experiment [1] was 28.3 µM (inactive); in [19], 15.6 µM (inactive); in experiment [2], 20.8 µM (inactive); in experiment [3] it was 54.1 µM (inactive); in experiment [4], 67.3 µM (inactive); in [5], 32.8 µM (inactive). Further, the GI50 in [6] was 38.3 µM (inactive); in [7] it was 35.2 µM (inactive); in [8] it was 47.9 µM (inactive); in [9] it was > 100 µM (inactive); in [10], 21.4 µM (inactive); in experiment [11] it was 16.7 µM (inactive). Besides, the GI50 in experiment [12] was 51.1 µM (inactive); in [13] it was 66.5 µM (inactive); in experiment [14], 56.5 µM (inactive); in experiment [16] it was 33.7 µM (inactive); in experiment [17] it was 24.2 µM (inactive); in [18], 35.3 µM (inactive).

In the case of `C=CCCC1CCCNC1=S` (stereo not given), the GI50 in [19], in [2], in [3], in experiment [4], in experiment [5] and in [6] was > 100 µM (inactive) each time. For the same compound, the GI50 in [7], in experiment [8], in [9], in experiment [10], in experiment [11] and in experiment [12] was > 100 µM (inactive) each time. Besides, the GI50 in experiment [13], in experiment [14], in experiment [15], in experiment [16], in experiment [17] and in experiment [18] was > 100 µM (inactive) in each case.

On to `CSc1ccc(/C=C2\N=C(c3ccccc3)N(/N=C/c3cc4cc(C)ccc4nc3Cl)C2=O)cc1`, for which the GI50 in experiment [1] was 19.5 µM (inactive); in experiment [19] it was 23.1 µM (inactive); in experiment [2] it was 13.6 µM (inactive); in experiment [3], 16.7 µM (inactive); in experiment [4], 21.2 µM (inactive); in experiment [5], 19.1 µM (inactive). Further, the GI50 in experiment [6] was 18.1 µM (inactive); in experiment [7], 23.1 µM (inactive); in experiment [8], 15.6 µM (inactive); in [9], 17.9 µM (inactive); in experiment [10], 16.5 µM (inactive); in experiment [12], 14.3 µM (inactive). Further, the GI50 in [20] was 22 µM (inactive); in experiment [13], 19.5 µM (inactive); in experiment [14], 16.9 µM (inactive); in [15], 15 µM (inactive); in [16] it was 24 µM (inactive); in experiment [18], 20 µM (inactive).

`O=C1C(c2c(O)[nH]c3ccc(F)cc23)=Nc2ccccc21`: the GI50 in [1] was > 100 µM (inactive); in experiment [19] it was > 100 µM (inactive); in [2] it was > 100 µM (inactive); in experiment [3], > 100 µM (inactive); in experiment [4], 3.21 µM (inactive); in [5], 15.1 µM (inactive). The GI50 is > 100 µM (inactive) in experiment [6]; 13.6 µM (inactive) in experiment [7]; > 100 µM (inactive) in [8]; 10.9 µM (inactive) in experiment [9]; > 100 µM (inactive) in experiment [11]; 1.03 µM (active) in [12]. The GI50 in experiment [13] is > 100 µM (inactive); in experiment [14], > 100 µM (inactive); in [15], > 100 µM (inactive); in experiment [16] it was 6.24 µM (inactive); in experiment [17] it was 3.19 µM (inactive); in experiment [18], 13.3 µM (inactive).

As to `ClCCN(CCCl)c1ccc(/C=N/Nc2ccnc3ccccc23)cc1`, the GI50 in experiment [1] was 1.88 µM (inactive); in experiment [19], 0.736 µM (active); in experiment [2] it was 1.21 µM (inactive); in experiment [3], 2.02 µM (inactive); in experiment [4], 2.17 µM (inactive); in [5], 2.65 µM (inactive). In addition, the GI50 in experiment [6] was 2.18 µM (inactive); in experiment [7] it was 2.23 µM (inactive); in experiment [8], 1.75 µM (inactive); in experiment [9] it was 1.64 µM (inactive); in [10], 1.41 µM (inactive); in experiment [11], 1.83 µM (inactive). The GI50 in experiment [12] is 1.65 µM (inactive); in [13], 1.63 µM (inactive); in experiment [14], 1.45 µM (inactive); in experiment [15] it was 1.86 µM (inactive); in experiment [16], 1.58 µM (inactive); in experiment [18], 1.48 µM (inactive).

For the compound `CN1CCC(n2[nH]c(-c3ccccc3)c(Cc3ccccc3)c2=O)CC1` [BENZPIPERYLON], the GI50 is > 100 µM (inactive) in experiment [1]; 87.9 µM (inactive) in experiment [19]; 75.9 µM (inactive) in experiment [2]; > 100 µM (inactive) in [3]; 29.7 µM (inactive) in experiment [4]; > 100 µM (inactive) in [5]. Further, the GI50 in experiment [6] is > 100 µM (inactive); in experiment [7] it was 50.9 µM (inactive); in [8], > 100 µM (inactive); in [9], > 100 µM (inactive); in experiment [10], 57.1 µM (inactive); in experiment [11] it was > 100 µM (inactive). Further, the GI50 was 59.7 µM (inactive) in experiment [12]; > 100 µM (inactive) in [13]; > 100 µM (inactive) in experiment [14]; 88.9 µM (inactive) in [15]; > 100 µM (inactive) in experiment [16]; 63 µM (inactive) in [17]. The GI50 in experiment [18] was > 100 µM (inactive).

On to `Cc1ccccc1/N=N/c1cc(C)c(/N=N/c2c(O)ccc3ccccc23)cc1C`, for which the GI50 in [1] is > 100 µM (inactive); in experiment [19] it was > 100 µM (inactive); in experiment [2] it was > 100 µM (inactive); in experiment [3] it was > 100 µM (inactive); in [4], 73.1 µM (inactive); in [5] it was > 100 µM (inactive). The GI50 was > 100 µM (inactive) in experiment [6]; 55.8 µM (inactive) in experiment [7]; > 100 µM (inactive) in experiment [8]; > 100 µM (inactive) in experiment [9]; > 100 µM (inactive) in [11]; > 100 µM (inactive) in experiment [12]. Further, the GI50 is > 100 µM (inactive) in [13]; > 100 µM (inactive) in experiment [14]; > 100 µM (inactive) in experiment [15]; > 100 µM (inactive) in [16]; > 100 µM (inactive) in experiment [17]; 99.3 µM (inactive) in [18].

On to `O=[N+]([O-])c1ccc(N2N=C(c3c(O)ccc4ccccc34)CC2c2ccc(Cl)cc2)c([N+](=O)[O-])c1` (stereo not given), for which the GI50 in experiment [1] is 29.9 µM (inactive); in experiment [19], 20.1 µM (inactive); in experiment [2] it was 15.3 µM (inactive); in experiment [3], 18.5 µM (inactive); in [4], 12.2 µM (inactive); in [5] it was 29.5 µM (inactive). The GI50 in [6] was 28.7 µM (inactive); in experiment [7], 27.4 µM (inactive); in experiment [8], 7.13 µM (inactive); in experiment [9], 26 µM (inactive); in experiment [10], 30.1 µM (inactive); in experiment [11], 31.5 µM (inactive). Further, the GI50 is 22.1 µM (inactive) in [12]; 15.1 µM (inactive) in [13]; 6.4 µM (inactive) in experiment [14]; 17.9 µM (inactive) in experiment [15]; 27.5 µM (inactive) in experiment [16]; 20 µM (inactive) in [17]. Further, the GI50 in experiment [18] is 30 µM (inactive).
